Key:
HT-22 [1] = experiment: Neuroprotective activity against glutamate-induced neuronal cell damage in mouse HT22 cells assessed as cell survival rate at 1 uM after 24 hrs by MTT assay (reference value: 12.49 to 43.44%); format: functional; conditions: HT-22, 24 h, read-out: Survival
HT-22 [2] = experiment: Neuroprotective activity against glutamate-induced neuronal cell damage in mouse HT22 cells assessed as cell survival rate at 10 uM after 24 hrs by MTT assay (reference value: 12.49 to 43.44%); format: functional; conditions: HT-22, 24 h, read-out: Survival
HT-22 [3] = experiment: Neuroprotective activity against glutamate-induced neuronal cell damage in mouse HT22 cells assessed as cell survival rate at 50 uM after 24 hrs by MTT assay (reference value: 12.49 to 43.44%); format: functional; conditions: HT-22, 24 h, read-out: Survival
HT-22 [4] = experiment: Neuroprotective activity against glutamate-induced neuronal cell damage in mouse HT22 cells assessed as cell survival rate at 100 uM after 24 hrs by MTT assay (reference value: 12.49 to 43.44%); format: functional; conditions: HT-22, 24 h, read-out: Survival
[5] = Cytotoxicity against mouse HT22 cells assessed as cell survival rate at 100 uM after 24 hrs by MTT assay; format: toxicity, HT-22; conditions: read-out: Survival
HT-22 [6] = experiment: Neuroprotective activity against glutamate-induced neuronal cell damage in mouse HT22 cells assessed as increase in cell viability at 1 to 100 uM after 24 hrs by MTT assay relative to glutamate; format: functional
Mus musculus [7] = experiment: Protection against focal cerebral ischemia in ICR mouse model of […] assessed as infarct volume of […] at 100 mg/kg, ip dosed 3 hrs post reperfusion measured 48 hrs post MCAO by TTC staining based assay (reference value: 62.75%); format: functional
Mus musculus [8] = experiment: Protection against focal cerebral ischemia in ICR mouse model of […] assessed as infarct volume of striatum at 100 mg/kg, ip dosed 3 hrs post reperfusion measured 48 hrs post MCAO by TTC staining based assay (reference value: 56.18%); format: functional
Mus musculus [9] = experiment: Protection against focal cerebral ischemia in ICR mouse model of […] assessed as infarct volume of hemisphere at 100 mg/kg, ip dosed 3 hrs post reperfusion measured 48 hrs post MCAO by TTC staining based assay (reference value: 44.98%); format: functional
Mus musculus [10] = experiment: Protection against focal cerebral ischemia in ICR mouse model of […] assessed as reduction in infarct volume administered ip 3 hrs post reperfusion measured 48 hrs post MCAO by TTC staining based assay; format: functional
Rattus norvegicus = experiment: Protection against focal cerebral ischemia in Wistar rat model of […] assessed as reduction in infarction volume administered ip at 2 hrs post reperfusion measured 3 days post MCAO; format: functional

Q: For `O=C(OCCCCCOc1ccc(-c2cc(=S)ss2)cc1)c1cccnc1`, which viability at 1 µM (HT-22 [1]) is on record?
A: 52.9%

Q: What about the viability at 10 µM (HT-22 [2]) of the same compound?
A: 92.5%

Q: And the viability at 50 µM (HT-22 [3])?
A: 93.3%

Q: And the viability at 100 µM (HT-22 [4])?
A: 82.2%

Q: What about the viability at 24 h, 100 µM [5] of the same compound?
A: 100%

Q: For `O=C(OCCCCCCCCCOc1ccc(-c2cc(=S)ss2)cc1)c1cccnc1`, which viability at 1 µM (HT-22 [1]) is on record?
A: 108%

Q: What about the viability at 10 µM (HT-22 [2]) of the same compound?
A: 101%

Q: And the viability at 50 µM (HT-22 [3])?
A: 80.6%

Q: What about the viability at 100 µM (HT-22 [4]) of the same compound?
A: 70.4%

Q: And the viability at 24 h, 100 µM [5]?
A: 70.4%

Q: With `O=C(CNC(=O)c1cccnc1)OCCCCOc1ccc(-c2cc(=S)ss2)cc1` as the compound, how does the viability at 1 µM (HT-22 [1]) read?
A: 69.2%

Q: What about the viability at 10 µM (HT-22 [2]) of the same compound?
A: 87.4%

Q: What about the viability at 50 µM (HT-22 [3]) of the same compound?
A: 100%

Q: And the viability at 100 µM (HT-22 [4])?
A: 99%

Q: And the viability at 24 h, 100 µM [5]?
A: 100%

Q: Which viability at 1 µM (HT-22 [1]) does the source give for `O=C(OCCOc1ccc(-c2cc(=S)ss2)cc1)c1cccnc1` here?
A: 57.9%

Q: And the viability at 10 µM (HT-22 [2])?
A: 80.8%

Q: What about the viability at 50 µM (HT-22 [3]) of the same compound?
A: 91.5%

Q: What about the viability at 100 µM (HT-22 [4]) of the same compound?
A: 102%

Q: And the viability at 24 h, 100 µM [5]?
A: 100%

Q: With `O=C(N[C@@H](Cc1ccccc1)C(=O)OCCCCOc1ccc(-c2cc(=S)ss2)cc1)c1cccnc1` as the compound, how does the viability at 1 µM (HT-22 [1]) read?
A: 64.7%

Q: What about the viability at 10 µM (HT-22 [2]) of the same compound?
A: 87.7%

Q: And the viability at 50 µM (HT-22 [3])?
A: 101%

Q: And the viability at 100 µM (HT-22 [4])?
A: 101%

Q: What about the viability at 24 h, 100 µM [5] of the same compound?
A: 100%

Q: Which viability at 1 µM (HT-22 [1]) does the source give for `O=C(Oc1ccc(-c2cc(=S)ss2)cc1)c1cccnc1` here?
A: 43.3%

Q: And the viability at 10 µM (HT-22 [2])?
A: 64.2%

Q: What about the viability at 50 µM (HT-22 [3]) of the same compound?
A: 82.4%

Q: What about the viability at 100 µM (HT-22 [4]) of the same compound?
A: 78.3%

Q: What about the viability at 24 h, 100 µM [5] of the same compound?
A: 100%

Q: What does the source list for `O=C(OCCCCOc1ccc(-c2cc(=S)ss2)cc1)c1cccnc1`?
A: viability at 1 µM (HT-22 [1]): 66.9%; viability at 10 µM (HT-22 [2]): 94.8%; viability at 50 µM (HT-22 [3]): 87.9%; viability at 100 µM (HT-22 [4]): 93.5%; viability at 24 h, 100 µM [5]: 52.9%

Q: With `O=C(OCCCCCCOc1ccc(-c2cc(=S)ss2)cc1)c1cccnc1` as the compound, how does the viability at 1 µM (HT-22 [1]) read?
A: 82.6%

Q: What about the viability at 10 µM (HT-22 [2]) of the same compound?
A: 83.2%

Q: What about the viability at 50 µM (HT-22 [3]) of the same compound?
A: 78.2%

Q: And the viability at 100 µM (HT-22 [4])?
A: 71.3%

Q: And the “fold change (FC)” value (HT-22 [6])?
A: 6

Q: What about the viability at 24 h, 100 µM [5] of the same compound?
A: 100%

Q: What about the Activity (Mus musculus [7]) of the same compound?
A: 38.01%

Q: And the Activity (Mus musculus [8])?
A: 23.04%

Q: What about the Activity (Mus musculus [9]) of the same compound?
A: 25.93%

Q: And the MED (Mus musculus [10])?
A: 100 mg/kg

Q: Which viability at 1 µM (HT-22 [1]) does the source give for `O=C(OCCCCCCCCOc1ccc(-c2cc(=S)ss2)cc1)c1cccnc1` here?
A: 82.5%

Q: And the viability at 10 µM (HT-22 [2])?
A: 78%

Q: What about the viability at 50 µM (HT-22 [3]) of the same compound?
A: 76.3%

Q: What about the viability at 100 µM (HT-22 [4]) of the same compound?
A: 82.3%

Q: And the viability at 24 h, 100 µM [5]?
A: 100%

Q: Which viability at 1 µM (HT-22 [1]) does the source give for `C[C@H](NC(=O)c1cccnc1)C(=O)OCCCCOc1ccc(-c2cc(=S)ss2)cc1` here?
A: 68.7%

Q: What about the viability at 10 µM (HT-22 [2]) of the same compound?
A: 75.5%

Q: And the viability at 50 µM (HT-22 [3])?
A: 77.9%

Q: What about the viability at 100 µM (HT-22 [4]) of the same compound?
A: 71.1%

Q: And the viability at 24 h, 100 µM [5]?
A: 100%

Q: With `CC(C)[C@H](NC(=O)c1cccnc1)C(=O)OCCCCOc1ccc(-c2cc(=S)ss2)cc1` as the compound, how does the viability at 1 µM (HT-22 [1]) read?
A: 73.3%

Q: And the viability at 10 µM (HT-22 [2])?
A: 72.4%

Q: And the viability at 50 µM (HT-22 [3])?
A: 70.8%

Q: And the viability at 100 µM (HT-22 [4])?
A: 68.1%

Q: What about the viability at 24 h, 100 µM [5] of the same compound?
A: 68%

Q: For `O=C(OCCCOc1ccc(-c2cc(=S)ss2)cc1)c1cccnc1`, which viability at 1 µM (HT-22 [1]) is on record?
A: 33.7%

Q: And the viability at 10 µM (HT-22 [2])?
A: 87.2%

Q: What about the viability at 50 µM (HT-22 [3]) of the same compound?
A: 93.4%

Q: What about the viability at 100 µM (HT-22 [4]) of the same compound?
A: 89.8%

Q: What about the viability at 24 h, 100 µM [5] of the same compound?
A: 100%

Q: Which viability at 1 µM (HT-22 [1]) does the source give for `Oc1ccc(-c2cc(=S)ss2)cc1` here?
A: 33.4%

Q: What about the viability at 10 µM (HT-22 [2]) of the same compound?
A: 52.2%

Q: And the viability at 50 µM (HT-22 [3])?
A: 104%

Q: And the viability at 100 µM (HT-22 [4])?
A: 76.4%

Q: For `NC(=O)c1cccnc1` [NIACINAMIDE], which MED (Rattus norvegicus) is on record?
A: 500 mg/kg

Q: Which viability at 1 µM (HT-22 [1]) does the source give for `O=C(O)c1cccnc1` [NIACIN] here?
A: 56.2%

Q: And the viability at 10 µM (HT-22 [2])?
A: 58.9%

Q: And the viability at 50 µM (HT-22 [3])?
A: 63.8%

Q: And the viability at 100 µM (HT-22 [4])?
A: 75.3%

— ChEMBL document CHEMBL3860062, “Synthesis and biological evaluation of novel hydrogen sulfide releasing nicotinic acid derivatives” (Bioorg Med Chem, 2016)
